Laboratory results as given in patent US7569229B2, “Monocyte locomotion inhibitory factor” (Center for Blood Research, Inc., priority 1998, dated 2009).

Tests used:
[1] = system: human peripheral blood MP; test: Inhibition of MP chemotaxis towards zymosan activated serum in double-filter Boyden chambers; format: cell-based; settings: Boyden chamber; native MLIF and construct in similar concentrations, comparable to each other; n=8 for each group; FIG. 3C
Experimental: (§1) (b) Preparation of cells. MP (95±2%) and neutrophils (95±2%) were obtained from the peripheral blood of fasting, non-smoking individual donors, using Ficoll-Paque centrifugation and further enrichment of MP by nylon wool adherence. Cell viability was established (≧94%) before and after the experiments by trypan blue dye exclusion.
(§2) (c) MLIF activity. In vitro MLIF activity was assessed either by the inhibition of MP chemotaxis towards zymosan (Sigma) activated serum in double-filter (upper filter 5.0 μm pore size (Nuclepore), lower cell-impermeable filter 8.0 μm pore size (Sartorius)) Boyden chambers, or by the inhibition of MP or neutrophil, Luminol™ (Eastman Kodak) enhanced chemiluminescence after opsonized zymosan particle ingestion, measured in Biorbit 1250 chemiluminometer (LKB) (n>6). In vivo MLIF activity was measured by its capacity to inhibit DNCB (1-chloro-2-4 dinitrobenzene) contact hypersensitivity reactions in individually-caged Harley short hair adult guinea pigs previously (14 days) sensitized with a vesicant DNCB dose (10 mg/ml acetone olive oil (4:1) soaked 5 mm diameter Whatman #2 filter paper disks). […] Disks were removed after 24 h, and redness-induration measured blindly a day later. […]
(§3) In vitro activity of native MLIF and its synthetic custom construct is measured. […]

[2] = system: human peripheral blood MP; test: Inhibition of Luminol enhanced chemiluminescence (respiratory burst) in opsonized zymosan activated MP; format: cell-based; settings: measured as mV/10^6 cells over a 29-30 minute period; six experiments; comparing experimental conditions, except 1 vs 10 μg of construct; FIG. 3A
Experimental: as §1, §2, §3

[3] = system: human peripheral blood neutrophils; test: Inhibition of Luminol enhanced chemiluminescence (respiratory burst) in opsonized zymosan activated neutrophils; format: cell-based; settings: measured as mV/10^6 cells over a 29-30 minute period; six experiments; comparing experimental conditions; FIG. 3B
Experimental: as §1, §2, §3

[4] = system: DNCB contact hypersensitivity reactions in guinea pigs; test: Inhibition of DNCB contact hypersensitivity skin reaction; format: in vivo, guinea pig; settings: for Histology of inhibited DNCB reactions: biopsies, compared to normal, non-interfered DNCB reactions; for DNCB skin reaction (mm diameter, or positive/negative with cut-off 5 mm) compared to PBS or virgin axenic medium control: intradermal injection 0.05 ml, native MLIF 8 μg/ml, custom construct 1, 10 or 100 μg/ml, comparable among them, FIG. 4
Experimental: (c) MLIF activity. In vitro MLIF activity was assessed either by the inhibition of MP chemotaxis towards zymosan (Sigma) activated serum in double-filter (upper filter 5.0 μm pore size (Nuclepore), lower cell-impermeable filter 8.0 μm pore size (Sartorius)) Boyden chambers, or by the inhibition of MP or neutrophil, Luminol™ (Eastman Kodak) enhanced chemiluminescence after opsonized zymosan particle ingestion, measured in Biorbit 1250 chemiluminometer (LKB) (n>6). In vivo MLIF activity was measured by its capacity to inhibit DNCB (1-chloro-2-4 dinitrobenzene) contact hypersensitivity reactions in individually-caged Harley short hair adult guinea pigs previously (14 days) sensitized with a vesicant DNCB dose (10 mg/ml acetone olive oil (4:1) soaked 5 mm diameter Whatman #2 filter paper disks). Intradermal injections of 0.05 ml of either native MLIF (8 μg/ml), MLIF custom construct (0.001-100 μg/ml), or pyrogen free phosphate buffered saline pH 7.4, were applied just beneath and simultaneous to the application of the eliciting dose of DNCB (0.05 mg/ml soaked paper disks). Disks were removed after 24 h, and redness-induration measured blindly a day later. Biopsies were obtained for histological evaluation in selected samples. The animals were not sacrificed.
(f) Statistical analysis. Results of in vitro MLIF activity were analyzed by non-parametric Mann-Whitney or Kruskall-Wallis analysis of variance test, and in vivo activity results by Student's t and Fisher's exact tests.
The reaction is measured in mm diameter against the eliciting dose, or as positive or negative reactions of the same with a cut-off criterium of 5 mm in diameter.

[5] = system: human mononuclear phagocytes; test: Cytoplasmic cyclic AMP in human mononuclear phagocytes; format: cell-based; settings: interaction through a receptor on human mononuclear phagocytes
[6] = system: polymorphonuclear eosinophils; test: Effect on eosinophils (locomotion or metabolism); format: cell-based; settings: locomotion or metabolism of polymorphonuclear eosinophils

Substance | Human peripheral blood MP chemotaxis compared to the normal chemotactic runs (i.e., 100%) [1] | Areas under the curve of chemiluminescence, MP [2] | Areas under the curve of chemiluminescence, neutrophils [3] | Histology of inhibited DNCB reactions [4] | DNCB skin reaction (mm diameter, or positive/negative with cut-off 5 mm) compared to PBS or virgin axenic medium control [4] | Cytoplasmic mediator cyclic AMP [5] | Effect on other cells, such as eosinophils [6] | Storage stability (at −70° C.) | Heat stability (incubation at 56° C.)
M - Q - C - N - S (MQCNS; listed as Entamoeba histolytica) [native MLIF] | significantly lower (p<0.01) | significantly (p<0.01) different | significantly (p<0.01) different | scarce mononuclear perivascular infiltrate | significantly different (p<0.001) | increase | does not affect | storable | heat stable
MQCNS [custom construct] | significantly lower (p<0.01) | significantly (p<0.01) different | significantly (p<0.01) different | scarce mononuclear perivascular infiltrate | significantly different (p<0.001) |  |  |  | 
